# Results: patent US12384769B2, “Heteroaryl-substituted aminoalkyl azole compounds as pesticides” (Elanco Animal Health GmbH, priority 2019, dated 2025)
# Tests used:
# Assay type in all cases: in vivo
# Diabrotica balteata = Diabrotica balteata spray test; conditions: 168 h, wheat seeds, after 7 days, read-out: activity (efficacy, seedlings grown); for pest or weed control at 160 µg/disc, 500 g/ha: 500 g/ha (=160 μg/well)
# Experimental: Diabrotica balteata—Spray Test
# Solvent: 78.0 parts by weight of acetone • • 1.5 parts by weight of dimethylformamide
# (§1) Emulsifier: alkylarylpolyglycol ether
# (§2) To produce a suitable preparation of active compound, 1 part by weight of active compound is mixed with the stated amount of solvent, and the concentrate is diluted with water, containing an emulsifier concentration of 1000 ppm, to the desired concentration. Further test concentrations are prepared by dilution with emulsifier containing water.
# Soaked wheat seeds (Triticum aestivum) are placed in a multiple well plate filled with agar and some water and are incubated for 1 day to germinate (5 seeds per well). The germinated wheat seeds are sprayed with a test solution containing the desired concentration of the active ingredient. Afterwards each unit is infected with 10-20 larvae of the banded cucumber beetle (Diabrotica balteata).
# After 7 days efficacy in % is determined. 100% means all the seedlings have grown up like in the untreated, uninfected control; 0% means none of the seedlings have grown.
# Boophilus microplus = Boophilus microplus injection test (BOOPMI Injection); conditions: Rhipicephalus microplus, 168 h, injection into adult engorged female ticks, egg deposition after 7 days, read-out: activity (efficacy, infertile eggs); for pest or weed control at 0.02 mg: 20 μg/animal; for pest or weed control at 0.004 mg: 4 μg/animal
# Experimental: Boophilus microplus—Injection Test (BOOPMI Injection)
# (§3) Solvent: dimethyl sulfoxide
# To produce a suitable preparation of active compound, 10 mg of active compound are dissolved in 0.5 mL solvent, and the concentrate is diluted with solvent to the desired concentration.
# Five adult engorged female ticks (Boophilus microplus) are injected with 1 μL compound solution into the abdomen. The ticks are transferred into replica plates and incubated in a climate chamber.
# After 7 days egg deposition of fertile eggs is monitored. Eggs where fertility is not visible are stored in a climate chamber till hatching after about 42 days. An efficacy of 100% means all eggs are infertile; 0% means all eggs are fertile.
# Ctenocephalides felis = Ctenocephalides felis oral test (CTECFE); conditions: 48 h, 100 ppm in cattle blood, after 2 days
# Experimental: Ctenocephalides felis—Oral Test (CTECFE)
# as §3
# To produce a suitable preparation of active compound, 10 mg of active compound are dissolved in 0.5 ml solvent, and the concentrate is diluted with cattle blood to the desired concentration.
# Approximately 20 adult unfed cat fleas (Ctenocephalides felis) are placed in flea chambers. The blood chamber, sealed with parafilm on the bottom, are filled with cattle blood supplied with compound solution and placed on the gauze covered top of the flea chamber, so that the fleas are able to suck the blood. The blood chamber is heated to 37° C. whereas the flea chamber is kept at room temperature.
# After 2 days mortality in % is determined. 100% means all the fleas have been killed; 0% means none of the fleas have been killed.
# Spodoptera frugiperda = Spodoptera frugiperda spray test; conditions: in Zea mays, 168 h, read-out: activity (mortality)
# Experimental: Spodoptera frugiperda—Spray Test
# Solvent: 78.0 parts by weight acetone • 1.5 parts by weight dimethylformamide
# as §1
# as §2, with “solvents” for “solvent,”, “and” for “and the concentrate”
# Maize (Zea mays) leaf sections are sprayed with a preparation of the active ingredient of the desired concentration. Once dry, the leaf sections are infested with fall armyworm larvae (Spodoptera frugiperda).
# After 7 days mortality in % is determined. 100% means all caterpillars have been killed and 0% means none of the caterpillars have been killed.
# [1] = tested on: Rhipicephalus microplus (strain Parkhurst, resistant against synthetic pyrethroids); assay: Rhipicephalus microplus in-vitro contact test, larval cattle tick (BOOPMI Contact); conditions: 5 μg/cm^2 (=500 g/ha), after 48 hours, read-out: activity (efficacy, larvae dead or moribund)
# Experimental: Rhipicephalus microplus—in-Vitro Contact Tests Larval Cattle Tick (Strain Parkhurst, Resistant Against Synthetic Pyrethroids) (BOOPMI Contact)
# 9 mg compound is solved in 1 ml acetone and diluted with acetone to the desired concentration. 250 μL of the test solution is filled in 25 ml glass test tubes and homogeneously distributed on the inner walls by rotation and tilting on a shaking device (2 h at 30 rpm). With a compound concentration of 900 ppm, an inner surface of 44.7 cm^2 and a homogeneous distribution, a dose of 5 μg/cm^2 is achieved.
# After the solvent has evaporated, each test tube is filled with 20-50 cattle tick larvae (Rhipicephalus microplus), closed with a perforated lid and incubated in a horizontal position at 85% relative humidity and 27° C. in an incubator. After 48 hours efficacy is determined. The larvae are patted on the ground of the tubes and negative geotactic behaviour is recorded.
# An efficacy of 100% means all larvae are dead or moribund; 0% means no larvae are dead or moribund.
compound,measurement,setting,value
C[C@H](Nc1nc2cc(Br)cc(Cl)c2o1)c1ncnn1-c1ncccn1 [Example I-010],pest or weed control at 100 g/ha,Diabrotica balteata,80%
same,"pest or weed control at 160 µg/disc, 500 g/ha",Diabrotica balteata,100%
same,pest or weed control at 0.02 mg,Boophilus microplus,100%
same,mortality at 100 ppm,Ctenocephalides felis,100%
same,mortality at 500 g/ha,Spodoptera frugiperda,100%
Cc1nc([C@H](C)Nc2nc3cc(C(F)(F)F)cc(C(F)(F)F)c3o2)n(-c2ncccn2)n1 [Example I-012],pest or weed control at 0.004 mg,Boophilus microplus,100%
same,pest or weed control at 0.02 mg,Boophilus microplus,100%
same,mortality at 100 ppm,Ctenocephalides felis,100%
same,mortality at 500 g/ha,Spodoptera frugiperda,100%
C[C@H](Nc1nc2cc(C(F)(F)F)cc(C(F)(F)F)c2o1)c1ncnn1-c1ccc(C#N)cn1 [Example I-026],"pest or weed control at 160 µg/disc, 500 g/ha",Diabrotica balteata,100%
same,pest or weed control at 0.004 mg,Boophilus microplus,100%
same,pest or weed control at 0.02 mg,Boophilus microplus,100%
same,pest or weed control at 5 µg/cm2,[1],100%
same,mortality at 100 ppm,Ctenocephalides felis,100%
same,mortality at 100 g/ha,Spodoptera frugiperda,100%
same,mortality at 500 g/ha,Spodoptera frugiperda,100%
C[C@H](Nc1nc2cc(C(F)(F)F)c(Cl)cc2o1)c1ncnn1-c1ccc(Cl)cn1 [Example I-033],pest or weed control at 5 µg/cm2,[1],100%
same,mortality at 100 ppm,Ctenocephalides felis,90%
same,mortality at 500 g/ha,Spodoptera frugiperda,100%
"C[C@H](Nc1nc2cc(C(F)(F)F)cc(Cl)c2o1)c1ncnn1-c1ncc(Br)s1 [Example I-035, N-{(1S)-1-[1-(5-bromo-1,3-thiazol-2-yl)-1H-1,2,4-triazol-5-yl]ethyl}-7-chloro-5-(trifluoromethyl)-1,3-benzoxazol-2-amine]",pest or weed control at 100 g/ha,Diabrotica balteata,100%
same,pest or weed control at 0.004 mg,Boophilus microplus,80%
same,mortality at 100 ppm,Ctenocephalides felis,100%
"C[C@H](Nc1nc2cc(C(F)(F)F)cc(Cl)c2o1)c1ncnn1-c1cnc(C#N)cn1 [Example I-041, 5-{5-[(1S)-1-{[7-Chlor-5-(trifluormethyl)-1,3-benzoxazol-2-yl]amino}ethyl]-1H-1,2,4-triazol-1-yl}pyrazin-2-carbonitril]",pest or weed control at 100 g/ha,Diabrotica balteata,100%
same,pest or weed control at 5 µg/cm2,[1],80%
same,mortality at 100 ppm,Ctenocephalides felis,90%
"C[C@H](Nc1nc2cc(C(F)(F)F)cc(Cl)c2o1)c1ncnn1-c1ncc(Br)cn1 [Example I-044, N-{(1S)-1-[1-(5-Brompyrimidin-2-yl)-1H-1,2,4-triazol-5-yl]ethyl}-7-chlor-5-(trifluormethyl)-1,3-benzoxazol-2-amin]",pest or weed control at 100 g/ha,Diabrotica balteata,100%
same,pest or weed control at 0.004 mg,Boophilus microplus,100%
same,pest or weed control at 5 µg/cm2,[1],100%
same,mortality at 100 ppm,Ctenocephalides felis,100%
same,mortality at 100 g/ha,Spodoptera frugiperda,100%
"C[C@H](Nc1nc2cc(C(F)(F)F)cc(Cl)c2o1)c1ncnn1-c1nccs1 [Example I-050, 7-Chlor-N-{(1S)-1-[1-(1,3-thiazol-2-yl)-1H-1,2,4-triazol-5-yl]ethyl}-5-(trifluormethyl)-1,3-benzoxazol-2-amin]",pest or weed control at 0.004 mg,Boophilus microplus,80%
same,pest or weed control at 0.02 mg,Boophilus microplus,80%
same,mortality at 100 ppm,Ctenocephalides felis,90%
"Cc1nc([C@H](C)Nc2nc3cc(C(F)(F)F)cc(Br)c3o2)n(-c2ncccn2)n1 [Example I-053, 7-Bromo-N-{(1S)-1-[3-methyl-1-(pyrimidin-2-yl)-1H-1,2,4-triazol-5-yl]ethyl}-5-(trifluormethyl)-1,3-benzoxazol-2-amin]","pest or weed control at 160 µg/disc, 500 g/ha",Diabrotica balteata,100%
same,pest or weed control at 0.004 mg,Boophilus microplus,100%
same,pest or weed control at 0.02 mg,Boophilus microplus,100%
same,mortality at 100 ppm,Ctenocephalides felis,100%
"C[C@H](Nc1nc2cc(C(F)(F)F)c(Cl)cc2o1)c1ncnn1-c1ncc(C2COC2)cn1 [Example I-056, 6-Chloro-N-[(1S)-1-{1-[5-(oxetan-3-yl)pyrimidin-2-yl]-1H-1,2,4-triazol-5-yl}ethyl]-5-(trifluoromethyl)-1,3-benzoxazol-2-amine]",pest or weed control at 0.004 mg,Boophilus microplus,80%
same,pest or weed control at 0.02 mg,Boophilus microplus,100%
same,pest or weed control at 5 µg/cm2,[1],80%
same,mortality at 100 ppm,Ctenocephalides felis,100%
"C[C@H](Nc1nc2cc(S(F)(F)(F)(F)F)cc(Cl)c2o1)c1ncnn1-c1ncccn1 [Example I-069, 7-Chlor-5-(pentafluor-lambda^6-sulfanyl)-N-{(1S)-1-[1-(pyrimidin-2-yl)-1H-1,2,4-triazol-5-yl]ethyl}-1,3-benzoxazol-2-amin]",pest or weed control at 100 g/ha,Diabrotica balteata,100%
same,pest or weed control at 0.004 mg,Boophilus microplus,100%
same,pest or weed control at 5 µg/cm2,[1],80%
same,mortality at 100 ppm,Ctenocephalides felis,100%
same,mortality at 100 g/ha,Spodoptera frugiperda,100%
"C[C@H](Nc1nc2cc(Cl)c(SC3CC3)cc2o1)c1ncnn1-c1ncccn1 [Example I-072, 5-Chlor-6-(cyclopropylsulfanyl)-N-{(1S)-1-[1-(pyrimidin-2-yl)-1H-1,2,4-triazol-5-yl]ethyl}-1,3-benzoxazol-2-amin]",pest or weed control at 5 µg/cm2,[1],90%
same,mortality at 100 ppm,Ctenocephalides felis,100%
"CCSc1cc2oc(N[C@@H](C)c3ncnn3-c3ncccn3)nc2cc1Cl [Example I-073, 5-Chor-6-(ethylsulfanoyl)-N-{(1S)-1-[1-(pyrimidin-2-yl)-1H-1,2,4-triazol-5-yl]ethyl}-1,3-benzoxazol-2-amin]",pest or weed control at 0.02 mg,Boophilus microplus,100%
same,pest or weed control at 5 µg/cm2,[1],100%
same,mortality at 100 ppm,Ctenocephalides felis,90%
"C[C@H](Nc1nc2cc(C(C)(C)C)cc(Cl)c2o1)c1ncnn1-c1ncccn1 [Example I-075, 5-tert-Butyl-7-chlor-N-{(1S)-1-[1-(pyrimidin-2-yl)-1H-1,2,4-triazol-5-yl]ethyl}-1,3-benzoxazol-2-amin]",pest or weed control at 0.004 mg,Boophilus microplus,100%
same,pest or weed control at 0.02 mg,Boophilus microplus,100%
same,mortality at 100 ppm,Ctenocephalides felis,80%
"CSc1cc2oc(N[C@@H](C)c3ncnn3-c3ncccn3)nc2cc1Cl [Example I-076, 5-Chlor-6-(methylsulfanyl)-N-{(1S)-1-[1-(pyrimidin-2-yl)-1H-1,2,4-triazol-5-yl]ethyl}-1,3-benzoxazol-2-amin]",pest or weed control at 0.004 mg,Boophilus microplus,100%
same,pest or weed control at 0.02 mg,Boophilus microplus,100%
same,pest or weed control at 5 µg/cm2,[1],90%
same,mortality at 100 ppm,Ctenocephalides felis,100%
"C[C@H](Nc1nc2cc(OC(F)(F)F)cc(Cl)c2o1)c1ncnn1-c1ncc(Br)cn1 [Example I-078, N-{(1S)-1-[1-(5-Brompyrimidin-2-yl)-1H-1,2,4-triazol-5-yl]ethyl}-7-chlor-5-(trifluormethoxy)-1,3-benzoxazol-2-amin]",pest or weed control at 100 g/ha,Diabrotica balteata,100%
same,mortality at 100 ppm,Ctenocephalides felis,100%
"C[C@H](Nc1nc2c(C(F)(F)F)cc(Br)cn2n1)c1ncnn1-c1ncccn1 [Example I-095, 6-bromo-N-{(1S)-1-[1-(pyrimidin-2-yl)-1H-1,2,4-triazol-5-yl]ethyl}-8-(trifluoromethyl)[1,2,4]triazolo[1,5-a]pyridin-2-amine]",pest or weed control at 5 µg/cm2,[1],80%
same,mortality at 100 ppm,Ctenocephalides felis,100%
